Reference: patent US12180207B2 (ARRAY BIOPHARMA INC., priority 2018, dated 2024)
pIC50: −log10 of the molar value.

Assays:
[1] = molecular target: HEK-293 cells transfected with dox-inducible human wild type FGFR3 (Homo sapiens (Human), UniProt P22607); experiment: FGFR3 pFGFR cell assay (ELISA); assay type: cell-based; settings: HEK-293 dox-inducible FGFR3, 1 hour compound, 100 ng/ml FGF-acidic
Procedure, shortened: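 Doxycycline-induced (1 μg/ml) HEK-293 cells expressing wild-type human FGFR3, treated 1 h with compound (1:3 series, top final 5 μM), then stimulated 5 min with 100 ng/ml FGF-acidic. Phospho-FGFR3 measured by ELISA (total FGFR3 capture, phosphotyrosine detection, OD 450 nm); IC50 from 4-parameter fit of POC values.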

dephosphorylated FGFR2 = dephosphorylated FGFR2 (Homo sapiens (Human), UniProt P21802); experiment: FGFR enzyme binding assay (HTRF tracer displacement), FGFR2; settings: 5 nM dephosphorylated FGFR2, average of multiple determinations if made
Procedure: The potency of compounds inhibiting human isoforms of FGFR kinase was determined using Life Technologies' Homogeneous Time Resolved Fluorescence (HTRF)-based binding assay technology. […] After a 60 minute incubation at 22° C., the extent of tracer displacement was determined using a PerkinElmer EnVision multimode plate reader via HTRF dual wavelength detection, and the percent of control (POC) was calculated using a ratiometric emission factor. One hundred POC was determined using no test compound, and 0 POC was determined in the presence of 1 μM of an appropriate control inhibitor.

Sequence of HEK-293 cells transfected with dox-inducible human wild type FGFR3 (P22607 23-806): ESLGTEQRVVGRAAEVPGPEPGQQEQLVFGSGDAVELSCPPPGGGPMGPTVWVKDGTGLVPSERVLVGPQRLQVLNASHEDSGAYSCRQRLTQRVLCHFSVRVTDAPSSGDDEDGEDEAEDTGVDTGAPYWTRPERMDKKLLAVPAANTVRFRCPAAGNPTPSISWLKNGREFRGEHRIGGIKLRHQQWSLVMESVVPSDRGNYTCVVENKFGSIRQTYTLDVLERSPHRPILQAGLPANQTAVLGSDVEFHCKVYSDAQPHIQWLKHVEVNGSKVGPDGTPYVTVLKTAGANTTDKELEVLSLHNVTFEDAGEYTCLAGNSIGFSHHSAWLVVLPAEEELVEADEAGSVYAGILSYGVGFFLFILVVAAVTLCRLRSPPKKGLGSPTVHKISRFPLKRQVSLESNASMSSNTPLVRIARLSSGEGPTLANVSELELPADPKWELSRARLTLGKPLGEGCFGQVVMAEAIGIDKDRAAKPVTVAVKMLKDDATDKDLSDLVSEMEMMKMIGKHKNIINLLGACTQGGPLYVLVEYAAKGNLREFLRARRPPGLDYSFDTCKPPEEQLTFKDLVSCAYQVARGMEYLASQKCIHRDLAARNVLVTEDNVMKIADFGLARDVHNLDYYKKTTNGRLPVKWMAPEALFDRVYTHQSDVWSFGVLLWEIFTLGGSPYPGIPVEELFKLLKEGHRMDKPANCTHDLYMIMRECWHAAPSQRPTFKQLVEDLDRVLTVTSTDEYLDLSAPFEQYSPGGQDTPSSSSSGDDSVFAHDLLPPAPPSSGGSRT
Sequence of dephosphorylated FGFR2 (P21802 22-821): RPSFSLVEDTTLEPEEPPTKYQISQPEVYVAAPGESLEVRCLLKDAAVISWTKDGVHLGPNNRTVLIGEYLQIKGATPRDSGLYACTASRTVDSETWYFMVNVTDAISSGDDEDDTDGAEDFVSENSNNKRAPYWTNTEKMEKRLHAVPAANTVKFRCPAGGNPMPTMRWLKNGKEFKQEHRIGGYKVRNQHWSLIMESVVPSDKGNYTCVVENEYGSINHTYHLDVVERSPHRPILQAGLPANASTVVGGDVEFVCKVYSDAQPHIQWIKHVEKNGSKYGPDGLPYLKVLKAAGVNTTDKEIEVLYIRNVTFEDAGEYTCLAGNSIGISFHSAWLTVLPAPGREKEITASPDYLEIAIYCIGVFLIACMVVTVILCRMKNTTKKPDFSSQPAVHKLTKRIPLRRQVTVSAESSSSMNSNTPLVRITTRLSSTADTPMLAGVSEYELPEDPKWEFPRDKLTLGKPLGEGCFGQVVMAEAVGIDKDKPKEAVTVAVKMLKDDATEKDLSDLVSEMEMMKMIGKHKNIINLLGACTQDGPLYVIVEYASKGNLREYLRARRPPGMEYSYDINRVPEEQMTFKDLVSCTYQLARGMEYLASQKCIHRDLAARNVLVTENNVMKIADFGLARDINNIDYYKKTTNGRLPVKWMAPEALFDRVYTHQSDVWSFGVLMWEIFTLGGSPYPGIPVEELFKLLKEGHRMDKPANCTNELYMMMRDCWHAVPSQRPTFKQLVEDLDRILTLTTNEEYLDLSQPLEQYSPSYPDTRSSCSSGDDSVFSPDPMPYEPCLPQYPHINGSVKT

pIC50 [1]: 7.51 | pIC50 (dephosphorylated FGFR2): 7.92
Structure (SMILES): C=CC(=O)N1CC(F)(C(=O)N2CCC(n3cc(-c4cc(OC)c5c(Cl)cnn5c4)cn3)CC2)C1 [Example 121, 1-(3-(4-(4-(3-chloro-4-methoxypyrazolo[1,5-a]pyridin-6-yl)-1H-pyrazol-1-yl)piperidine-1-carbonyl)-3-fluoroazetidin-1-yl)prop-2-en-1-one]
